Counter-ions that a name gives are not always drawn. Marks after values point to notes of the source that are not given here.
What was measured:
human SSTR4 = biological target: T1, human SSTR4 (Homo sapiens, UniProt P31391); test: cell-based human SSTR4 cAMP assay (agonist activity); conditions: SSTR4, EC50 (nM), Flp-In-CHO-SSTR4 stable pool, Forskolin-stimulated cAMP
T1 construct: expressed in transfected cells
Protocol: Purpose of test: A cell-based human SSTR4 cAMP assay was used to determine the agonistic effect of the test compound on an SSTR 4 receptor.
Cell culture and reagent preparation: cell line: Flp-In-CHO-SSTR4 stable pool; complete medium: Ham’s F-12 K + 10% FBS + 1 × penicillin-streptomycin (PS) + 600 µg/ml hygromycin B; cell seeding medium: Ham’s F-12K + 10% FBS; assay buffer: 1 × HBSS + 20 mM HEPES + 0.1%BSA + 500 uM IBMX.
The Flp-In-CHO-SSTR 4 stable pool cell line was cultured in a complete medium at 37° C., 5% CO2 until a confluency of 70% to 90%.
After TrypLE digestion, the cells were resuspended in the seeding medium and seeded in a 384-well cell culture plate (384 PE culture plate), with 7,000 cells per well, and were cultured overnight at 37° C., 5% CO2.
The cell culture plate was taken out, inverted at 200 g at room temperature for 5 s to remove the medium, then quickly filled with 15 µl of an experimental buffer to each experimental well, and centrifuged at 200 g at room temperature for 5 s.
2.5 µl of the 8x compound working solution diluted in step 3 was added to corresponding test wells, which were centrifuged at 200 g for 5 s at room temperature, and incubated at 37° C. for 10 min.
A 4 uM Forskolin working solution (8x) was prepared.
The cell plate was taken out and equilibrated to room temperature, then filled with 2.5 µl of the 8x Forskolin working solution prepared in step 6 to corresponding test wells, followed by RT at 200 g for 5 s, and left to stand at 37° C. for 30 min.
A Eu-cAMP tracer and Uliaght-anti-cAMP were freeze-thawed, the Eu-cAMP tracer was diluted 50-fold with a detection buffer, and the Uliaght-anti-cAMP was dilutd 150-fold.
10 µl of the Eu-cAMP tracer was added to all experimental wells, then 10 µl of the detection buffer was added to NC wells, and 10 µl of the Uliaght-anti-cAMP was added to the remaining experimental wells.
The reaction plate was centrifuged at 200 g for 30 s at room temperature, and after standing at 25° C. for 1 h, data was collected using Envision.
Compound EC50 was calculated using a GraphPad nonlinear fitting formula: […]
X: Compound concentration log value; Y: HTRF ratio

[1] = metabolic stability in pooled human liver microsomes; conditions: pH 7.4
Protocol: (§1) Metabolic degradation of a test compound was analyzed using pooled human liver microsomes and male rat liver microsomes, respectively, at 37° C.
(§2) After pre-incubation at 37° C. for 5 min, NADPH (5 mM, 60 µL) was added to initiate a reaction. A fixed volume of the reaction mixture (30 µL) was sampled into the solution at fixed time points (0, 5, 15, 30, 60 min) to quench the reaction. After centrifugation (4000 rpm, 15 min), the supernatant (100 µL) was mixed with distilled water (100 µL) and then subjected to LC-MS/MS analysis to test the amount of the compound. A half-life was calculated using a first-order reaction kinetic equation (Ct = C0 × e^-ket, T½ = Ln2/ke).

[2] = metabolic stability in male rat liver microsomes; conditions: pH 7.4
Protocol: as §1, §2

rat CFA pain model [3] = test: single-dose pharmacodynamic study in rat CFA pain model (Von Frey PWT); type: in vivo
Protocol: Each male SD rat (7-8 weeks old) was injected with 50 microliters of CFA in the center of the left hind paw. A PWT basal value test was conducted 24 hours after modeling, and the drugs were administered after randomization.
There were 8 animals in each group, and the animals were weighed and administered according to Table 4.
For all groups of animals, paw withdrawal thresholds (PWTs) of the animals were tested using Von Frey after 1 h and 3 h of single administration.

rat CFA pain model [4] = test: multi-dose oral pharmacodynamic study in rat CFA pain model (Von Frey PWT); type: in vivo
Protocol: The efficacy of Compound 1a and Compound 14 in the rat CFA pain model was evaluated using a mechanical allodynia method.
SD rats, 72 males, divided into 9 groups, were purchased from Beijing Vital River Laboratory Animal Technology Co., Ltd.
The experimental animals were adaptively reared for 3 to 7 days, and 8 of them were selected as a normal control group, and the other animals were injected with 50 µL of CFA in the center of the left hind paw for modeling. 24 hours after injection, the animals were tested for paw withdrawal threshold (PWT) basal values, and were divided into groups according to the basal values, which were solvent control group, indomethacin group, Compound 1a, 10 mpk group, Compound 1a, 30 mpk group, Compound 1a, 100 mpk group, Compound 14, 3 mpk group, Compound 14, 10 mpk group, and Compound 14, 30 mpk group, with 8 animals in each group. Subsequently, the animals were weighed and administered orally according to Table 6. All the animals were tested for paw withdrawal thresholds (PWT) using Von Frey 1, 2, and 4 hours after administration to further evaluate the efficacy of the compounds of the present invention.

T1 sequence (P31391 whole entry): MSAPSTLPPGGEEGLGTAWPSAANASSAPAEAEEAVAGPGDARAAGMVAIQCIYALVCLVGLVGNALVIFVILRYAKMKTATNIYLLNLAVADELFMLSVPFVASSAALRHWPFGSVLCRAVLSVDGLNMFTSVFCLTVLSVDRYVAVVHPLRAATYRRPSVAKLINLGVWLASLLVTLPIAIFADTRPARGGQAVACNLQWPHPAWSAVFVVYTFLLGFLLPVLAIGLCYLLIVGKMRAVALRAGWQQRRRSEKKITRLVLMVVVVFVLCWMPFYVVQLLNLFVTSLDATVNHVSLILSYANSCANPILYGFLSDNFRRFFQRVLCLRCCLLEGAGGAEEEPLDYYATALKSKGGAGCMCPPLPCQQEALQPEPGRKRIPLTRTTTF

Row | SMILES | EC50 (human SSTR4) [nM] | also measured
1 | CC(C)Sc1cccn2c(C(C)(C)NC(=O)[C@H]3[C@@H]4CNC[C@@H]43)ncc12 [Compound 7, (1R,5S,6R)-N-(2-(8-(Isopropylthio)Imidazo[1,5-a]Pyridin-3-yl)Prop-2-yl)-3-Azabicyclo[3.1.0]Hexane-6-Carboxamide] | 3.29 | –
2 | CSc1cccn2c(C(C)(C)NC(=O)C3C4CNCC43C)ncc12 (single isomer, unassigned) [Compound 5-P1, 1-Methyl-N-(2-(8-(Methylthio)Imidazo[1,5-a]Pyridin-3-yl)Propan-2-yl)-3-Azabicyclo[3.1.0]Hexane-6-Carboxamide] | 1.25 | –
3 | COc1ccc2c(c1)c(CC(=O)O)c(C)n2C(=O)c1ccc(Cl)cc1 [Indomethacin, reference compound] | – | Mechanical allodynia test (PWT (g), mean) Baseline (rat CFA pain model [3]; 30 mg/kg P.O. group, baseline 24 h after CFA, before administration): 3.554 g; Mechanical allodynia test (PWT (g), mean) 1 hour (rat CFA pain model [3]; 30 mg/kg P.O., 1 hour after single administration): 4.448 g; inhibition of CFA-induced mechanical allodynia (in words) (rat CFA pain model [3]; 30 mg/kg P.O., 3 hours after administration, FIG. 1): significantly inhibit; Mechanical allodynia test (PWT (g), mean) 3 hours (rat CFA pain model [3]; 30 mg/kg P.O., 3 hours after single administration): 10.360 **** #### g; Paw withdrawal threshold (PWT(g)) (average) 0 hours (rat CFA pain model [4]; 30 mg/kg oral group, 0 hours): 3.012 g; inhibition of CFA-induced mechanical allodynia (in words) (rat CFA pain model [4]; 30 mg/kg oral, 2 and 4 hours after administration, FIG. 2): significantly inhibited; Paw withdrawal threshold (PWT(g)) (average) 1 hour (rat CFA pain model [4]; 30 mg/kg oral, 1 hour): 4.461 g; Paw withdrawal threshold (PWT(g)) (average) 2 hours (rat CFA pain model [4]; 30 mg/kg oral, 2 hours): 7.486 ** g; Paw withdrawal threshold (PWT(g)) (average) 4 hours (rat CFA pain model [4]; 30 mg/kg oral, 4 hours): 6.813 ** g
4 | CSc1cccn2c(C(C)(C)NC(=O)C3C4CNCC43C)ncc12 (single isomer, unassigned) [Compound 5-P2, 1-methyl-N-(2-(8-(methylthio)imidazo[1,5-a]pyridin-3-yl)propan-2-yl)-3-azabicyclo[3.1.0]hexane-6-carboxamide] | 0.41 | –
5 | CCSc1cccn2c(C(C)(C)NC(=O)[C@H]3[C@@H]4CNC[C@@H]43)ncc12 [Compound 6, (1R,5S,6R)-N-(2-(8-(Ethylthio)Imidazo[1,5-a]Pyridin-3-yl)Prop-2-yl)-3-Azabicyclo[3.1.0]Hexane-6-Carboxamide Hydrochloride] | 0.73 | –
6 | CSc1cccn2c(C(C)(C)NC(=O)[C@H]3[C@@H]4CNC[C@@H]43)ncc12.Cl [Compound 1, (1R,5S,6R)-N-(2-(8-(Methylthio)Imidazo[1,5-a]Pyridin-3-yl)Prop-2-yl)-3-Azabicyclo[3.1.0]Hexane-6-Carboxamide Hydrochloride] | 0.15 | half-life at 1 µM ([1]; microsomes): > 3.11 h; half-life at 1 µM ([2]; microsomes): > 3.11 h
7 | CC(C)CSc1cccn2c(C(C)(C)NC(=O)[C@H]3[C@@H]4CNC[C@@H]43)ncc12 [Compound 10, (1R,5S,6R)-N-(2-(8-(Isobutylthio)Imidazo[1,5-a]Pyridin-3-yl)Prop-2-yl)-3-Azabicyclo[3.1.0]Hexane-6-Carboxamide] | 7.89 | –
8 | CSc1nc(C(C)(C)NC(=O)[C@H]2[C@@H]3CNC[C@@H]32)n2cccc(C)c12 [Compound 17, (1R,5S,6R)-N-(2-(8-Methyl-1-(Methylthio)Imidazo[1,5-a]Pyridin-3-yl)Propan-2-yl)-3-Azabicyclo[3.1.0]Hexane-6-Carboxamide] | 0.068 | half-life at 1 µM ([1]; pooled human liver microsomes): > 3.11 h; half-life at 1 µM ([2]; rat liver microsomes): > 3.11 h
9 | CC(C)(CSc1ccccc1C(F)(F)F)NC(=O)[C@H]1[C@@H]2CNC[C@@H]21 [Compound 2, (1R,5S,6R)-N-(2-Methyl-1-((2-(Trifluoromethyl)Phenyl)Thio)Prop-2-yl)-3-Azabicyclo[3.1.0]Hexane-6-Carboxamide Formate] | 6.77 | –
10 | CC(C)(NC(=O)[C@H]1[C@@H]2CNC[C@@H]21)c1ncc2c(SCc3ccccc3)cccn12 [Compound 9, (1R,5S,6R)-N-(2-(8-(Benzylthio)Imidazo[1,5-a]Pyridin-3-yl)Prop-2-yl)-3-Azabicyclo[3.1.0]Hexane-6-Carboxamide] | 3.42 | –

Continued, in another order:

Row | EC50 (human SSTR4) [nM] | SMILES | also measured
11 | 7.58 | CC(C)(NC(=O)[C@H]1[C@@H]2CNC[C@@H]21)c1ncc2c(SCC3CCCC3)cccn12 [Compound 13, (1R,5S,6R)-N-(2-(8-((Cyclopentylmethyl)Thio)Imidazo[1,5-a]Pyridin-3-yl)Propan-2-yl)-3-Azabicyclo[3.1.0]Hexane-6-Carboxamide] | –
12 | 2.47 | CC(C)(NC(=O)[C@H]1[C@@H]2CNC[C@@H]21)c1ncc2c(SCC3CCC3)cccn12 [Compound 11, (1R,5S,6R)-N-(2-(8-((Cyclobutylmethyl)Thio)Imidazo[1,5-a]Pyridin-3-yl)Propan-2-yl)-3-Azabicyclo[3.1.0]Hexane-6-Carboxamide] | –
13 | 1.25 | CSc1ccccc1C(C)(C)NC(=O)[C@H]1[C@@H]2CNC[C@@H]21 [Compound 16, (1R,5S,6R)-N-(2-(2-(Methylthio)Phenyl)Propan-2-yl)-3-Azabicyclo[3.1.0]Hexane-6-Carboxamide] | –
14 | 0.046 | CSc1cccc2c(C(C)(C)NC(=O)[C@H]3[C@@H]4CNC[C@@H]43)n[nH]c12 [Compound 15, (1R,5S,6R)-N-(2-(7-(Methylthio)-1H-Indazol-3-yl)Propan-2-yl)-3-Azabicyclo[3.1.0]Hexane-6-Carboxamide] | half-life at 1 µM ([1]; pooled human liver microsomes): > 3.11 h; half-life at 1 µM ([2]; rat liver microsomes): > 3.11 h
15 | 1.83 | CC(C)(NC(=O)[C@H]1[C@@H]2CNC[C@@H]21)c1ncc2c(SC3CCC3)cccn12 [Compound 12, (1R,5S,6R)-N-(2-(8-(Cyclobutylthio)Imidazo[1,5-a]Pyridin-3-yl)Prop-2-yl)-3-Azabicyclo[3.1.0]Hexane-6-Carboxamide] | –
16 | 10.5 | CC(C)(NC(=O)[C@H]1[C@@H]2CNC[C@@H]21)c1ncc2c(SC3CCCC3)cccn12 [Compound 3, (1R,SS,6R)-N(2-(8-(Cyclopentylthio)Imidazo[1,5-a]Pyridin-3-yl)Prop-2-yl)-3-Azabicyclo[3.1.0]Hexane-6-Carboxamide] | –
17 | 0.5 | CC(C)(NC(=O)[C@H]1[C@@H]2CNC[C@@H]21)c1ncc2c(SCC3CC3)cccn12 [Compound 8, (1R,5S,6R)-N-(2-(8-((Cyclopropylmethyl)Thio)Imidazo[1,5-a]Pyridin-3-yl)Propan-2-yl)-3-Azabicyclo[3.1.0]Hexane-6-Carboxamide] | –
18 | 36.7 | CC(C)(NC(=O)[C@H]1[C@@H]2CNC[C@@H]21)c1ncc2c(Sc3nccs3)cccn12 [Compound 4, (1R,5S,6R)-N-(2-(8-(Thiazol-2-Ylsulfanyl)Imidazo[1,5-a]Pyridin-3-yl)Prop-2-yl)-3-Azabicyclo[3.1.0]Hexane-6-Carboxamide] | –
